Data published in patent publication US20090285917A1, “COMPOSITION COMPRISING COMPLEX CRUDE DRUG EXTRACTS SHOWING ANTI-ALLERGIC RHINITIS, ANTI-ATOPIC DERMATITIS AND ANTI-ASTHMA ACTIVITY” (priority 2006, published 2009).
Structures can show the parent of a compound that is named as a salt.

Test system: Passive Cutaneous Anaphylaxis in male mouse
Assay: Passive cutaneous anaphylaxis (PCA), evans blue in ears
Type: in vivo
Procedure: Anti-DNP (anti-Dinitrophenyl) of 1.2 ug/mL, […], Sigma was injected by 10 ul into both ears of a male mouse, and 47 hours after antibody Dinitrophenyl injection, the sample is oral-administrated. One hour later (48 hours after antibody-Dinitrophenyl injection), 1.25 mg of DNP-albumin, […], Sigma and a biological salt solution dissolved with 1.25 mg of evans blue, […], Sigma was injected into a tail vein for thereby causing a certain reaction. Neck back bone was broken, and the mouse was dead, and the evans blue color component was measured from both ears. As control groups, promethazine hydrochloride, […], Sigma was used.

Structure (SMILES): CC(CN1c2ccccc2Sc2ccccc21)N(C)C (stereo not drawn) [Promethazine hydrochloride, promethazine hydrochloride]
- Amount of Color (administration amount 2, oral): 7.8 ± 0.5 ug/a pair of ears
- Amount of Color (administration amount 5, oral): 5.4 ± 1.1 ug/a pair of ears
- Amount of Color (administration amount 10, oral): 1.7 ± 1.0 ug/a pair of ears
